Consider 16 compounds from patent US20110230476A1, “PI3 KINASE INHIBITORS AND USES THEREOF” (AVILA THERAPEUTICS, INC., priority 2009, published 2011).

pEC50, pIC50: −log10 of the molar value. A value given as a limit tells only on which side of the number the result lay.

The subject of test [1] is Phospho-Akt(Ser473). The experiment in a line: Dose response in SKOV3 cells as determined by Western blot. Format: cell-based. Particulars: Homo sapiens, SK-OV-3, 1 hr, Phospho-Akt normalized to total Akt, read-out: Immunoblot. On the procedure:
Dose Response in SKOV3 Cells as Determined by Western Blot
SKOV3 cells were plated in SKOV3 Growth Media (DMEM supplemented with 10% FBS and pen/strep) at a density of 4×10^5 cells per well of 12 well plates. Twenty four hours later the media was removed and replaced with 1 ml media containing test compound and 0.1% DMSO and cells were returned to the incubator for 1 hr. At the end of the hour, the media was removed and the cells were washed with PBS, then lysed and scraped into 30 ul of Cell Extraction Buffer (Biosource, Camarillo, Calif.) plus Complete Protease Inhibitor and PhosStop Phosphatase Inhibitor (Roche, Indianapolis, Ind.).
Cell debris was spun down at 13,000×g for 1 minute and the supernatant was taken as the cell lysate. Protein concentration of the lysate was determined by BCA Assay (Pierce Biotechnology, Rockford, Ill.) and 50 ug of protein was loaded per well onto a NuPAGE Novex 4-12% Bis-Tris gel (Invitrogen, Carlsbad, Calif.) then transferred to Immobilon PVDF-FL (Millipore, Billerica, Mass.).
The blot was blocked in Odyssey Blocking Buffer (Li-Cor Biosciences, Lincoln, Nebr.) for 1 hr then incubated overnight at 4° C. with mouse anti-Akt (#2920) and rabbit anti-Phospho-Akt(Ser473) (#9271)(Cell Signaling Technology, Boston, Mass.) antibodies, both diluted 1:1000 in PBS/Odyssey Buffer (1:1)+0.1% Tween-20. The blots were washed 3 times 5 minutes in PBS+0.2% Tween-20 then incubated for 1 hr at room temperature with fluorescently labeled secondary antibodies (Li-Cor) diluted 1:10000 in PBS/Odyssey Buffer (1:1)+0.1% Tween-20.
The blots were washed 2 times for 5 minutes in PBS+0.2% Tween-20, once in distilled water, then scanned on an Odyssey machine (Li-Cor). Band intensity was determined using the Odyssey software and Phopho-Akt signal was normalized to total Akt within samples, then expressed as a percentage of the untreated Phospho-Akt signal.
(In general: Immunoblotting shows a protein as a band on a membrane.)

The test system of test [2] is Phospho-Akt(Ser473). Briefly: Dose response in SKOV3 cells as determined by in-cell Western. It counts as cell-based. Conditions: Homo sapiens, SK-OV-3; SKOV3 cells, 1 hr; read-out: pAKT Inhibition in cell Western. A digest of the protocol:
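SKOV3 cells treated with compound for 1 hr, then formaldehyde-fixed, permeabilised and stained overnight for phospho-Akt(Ser473) with anti-tubulin as a reference. Infrared secondary antibodies read at 680 and 800 nm channels by in-cell Western imaging.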

The target of the next test is T1, PI3Kα (p110α/p85α) (Homo sapiens, UniProt P42336).
T1 construct: purchased BPS Bioscience (San Diego, Calif.) or Millipore (Billerica, Mass.)
The experiment in a line: HTRF assay, potency against active PI3Kα. It counts as biochemical. Conditions: HTRF; [ATP]=50 μM, [di-C8-PIP2]=10 μM; 30 min pre-incubation; read-out: PI3Kα Inhibition. The essentials: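 IC50 came from a variable-slope fit of % inhibition, calculated from the HTRF emission ratio relative to wells with and without enzyme. Reactions with the active enzyme complex ran 30-60 minutes at 25 °C after ATP addition before stop and detection reagents.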
In general terms: TR-FRET usually uses a lanthanide donor and a delayed reading to cut background.

In the next test the test system is SKOV3 cells. The experiment in a line: GI50 determinations in SKOV3 cells. It counts as cell-based. Conditions: Homo sapiens, SK-OV-3; SKOV3 cells, 96 hours, Cell Titer Glo. On the procedure:
GI50 Determinations in SKOV3 Cells
A standard curve ranging from 10,000 to 50,000 cells was set up in a separate plate and allowed to adhere to the plate for 4-6 hours, at which time the plate was developed using Cell Titer-Glow (Promega, Madison, Wis.) according to manufacturer's instructions.
The next morning, 3-fold compound dilutions ranging from 10,000 nM to 40 nM were prepared in Proliferation Media containing 1% DMSO. 20 ul of each dilution was added to the SKOV3 cells plated the previous day resulting in a dose response curve from 1000 nM to 4 nM. The cells were incubated for 96 hours and then developed with Cell Titer Glo.
The cell numbers at the end of the assay were determined using the standard curve generated at the start of the assay. Growth inhibition was calculated using the following formulas and GI50s were determined by plotting the % growth inhibition vs. Log compound concentration in GraphPad.
%growth=100×(T−T0)/(C−T0)
T=Cell Number at end of assay T0=Cell Number at start of assay (5000) C=Number of cells in DMSO controls at end of assay
%growth inhibition=100−%growth
A general note: Cellular ATP, detected with luciferase, serves as a proxy for viable cell number.

Another test addresses T2, PI3Kγ (p120γ) (Homo sapiens, UniProt P48736).
T2 construct: purchased BPS Bioscience (San Diego, Calif.) or Millipore (Billerica, Mass.)
The experiment in a line: HTRF assay, potency against active PI3Kγ. Format: biochemical. Conditions: [ATP]=50 μM, [di-C8-PIP2]=10 μM, 30 min pre-incubation, read-out: PI3Kγ Inhibition. A digest of the protocol: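 End-point competition HTRF: enzyme (p110β/p85α 0.75 nM; p120γ 2-2.5 nM) with 10 μM di-C8-PIP2 pre-incubated 30 min at 25° C with compound, then 50 μM ATP added for 30-60 min at 25° C. Stopped, detected after 1 and 18 h; IC50 from variable-slope fit.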

T1 sequence (P42336 whole entry): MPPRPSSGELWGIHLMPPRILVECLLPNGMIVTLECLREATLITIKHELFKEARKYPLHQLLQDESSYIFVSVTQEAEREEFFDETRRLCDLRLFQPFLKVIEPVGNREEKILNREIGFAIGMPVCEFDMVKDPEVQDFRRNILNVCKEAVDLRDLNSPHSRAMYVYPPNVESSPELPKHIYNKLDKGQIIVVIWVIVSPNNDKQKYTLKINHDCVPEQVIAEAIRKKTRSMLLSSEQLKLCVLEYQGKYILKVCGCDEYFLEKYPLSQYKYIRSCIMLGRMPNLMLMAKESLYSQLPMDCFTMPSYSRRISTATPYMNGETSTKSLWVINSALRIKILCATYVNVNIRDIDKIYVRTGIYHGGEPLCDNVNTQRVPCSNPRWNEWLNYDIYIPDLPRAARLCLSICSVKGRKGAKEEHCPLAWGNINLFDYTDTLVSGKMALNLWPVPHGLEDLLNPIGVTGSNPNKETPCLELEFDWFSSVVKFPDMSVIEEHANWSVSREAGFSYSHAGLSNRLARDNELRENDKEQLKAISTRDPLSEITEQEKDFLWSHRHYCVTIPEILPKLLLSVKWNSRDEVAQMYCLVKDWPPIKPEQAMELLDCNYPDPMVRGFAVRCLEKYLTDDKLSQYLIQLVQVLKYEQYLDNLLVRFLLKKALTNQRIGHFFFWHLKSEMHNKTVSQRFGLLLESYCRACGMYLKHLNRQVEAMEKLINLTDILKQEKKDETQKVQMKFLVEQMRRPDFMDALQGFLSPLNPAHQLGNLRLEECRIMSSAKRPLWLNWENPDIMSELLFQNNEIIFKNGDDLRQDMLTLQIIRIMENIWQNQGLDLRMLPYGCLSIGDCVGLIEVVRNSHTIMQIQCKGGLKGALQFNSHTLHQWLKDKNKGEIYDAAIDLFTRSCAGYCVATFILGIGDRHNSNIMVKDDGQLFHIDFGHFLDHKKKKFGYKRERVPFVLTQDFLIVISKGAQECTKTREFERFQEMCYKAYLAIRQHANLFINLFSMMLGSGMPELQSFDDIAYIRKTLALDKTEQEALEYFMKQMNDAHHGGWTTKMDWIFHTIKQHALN
T1 sequence (P27986 whole entry partner): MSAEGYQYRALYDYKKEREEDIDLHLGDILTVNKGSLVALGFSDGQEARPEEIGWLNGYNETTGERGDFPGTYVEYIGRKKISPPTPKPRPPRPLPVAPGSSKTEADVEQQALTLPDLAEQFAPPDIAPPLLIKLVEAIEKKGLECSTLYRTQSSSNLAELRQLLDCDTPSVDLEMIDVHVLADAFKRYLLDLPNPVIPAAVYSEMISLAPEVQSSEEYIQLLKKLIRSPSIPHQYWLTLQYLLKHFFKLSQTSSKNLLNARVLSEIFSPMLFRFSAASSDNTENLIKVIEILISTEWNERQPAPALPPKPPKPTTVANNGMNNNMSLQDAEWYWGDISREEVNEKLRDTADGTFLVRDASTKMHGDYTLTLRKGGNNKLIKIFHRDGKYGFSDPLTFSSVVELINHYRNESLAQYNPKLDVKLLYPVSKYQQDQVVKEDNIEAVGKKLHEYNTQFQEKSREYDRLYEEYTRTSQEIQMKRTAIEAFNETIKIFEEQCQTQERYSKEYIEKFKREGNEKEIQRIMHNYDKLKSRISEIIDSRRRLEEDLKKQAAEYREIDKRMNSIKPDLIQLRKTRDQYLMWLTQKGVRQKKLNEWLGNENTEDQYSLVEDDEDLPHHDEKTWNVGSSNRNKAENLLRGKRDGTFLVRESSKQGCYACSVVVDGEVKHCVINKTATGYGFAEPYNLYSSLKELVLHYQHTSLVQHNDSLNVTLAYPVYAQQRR
T2 sequence (P48736 whole entry): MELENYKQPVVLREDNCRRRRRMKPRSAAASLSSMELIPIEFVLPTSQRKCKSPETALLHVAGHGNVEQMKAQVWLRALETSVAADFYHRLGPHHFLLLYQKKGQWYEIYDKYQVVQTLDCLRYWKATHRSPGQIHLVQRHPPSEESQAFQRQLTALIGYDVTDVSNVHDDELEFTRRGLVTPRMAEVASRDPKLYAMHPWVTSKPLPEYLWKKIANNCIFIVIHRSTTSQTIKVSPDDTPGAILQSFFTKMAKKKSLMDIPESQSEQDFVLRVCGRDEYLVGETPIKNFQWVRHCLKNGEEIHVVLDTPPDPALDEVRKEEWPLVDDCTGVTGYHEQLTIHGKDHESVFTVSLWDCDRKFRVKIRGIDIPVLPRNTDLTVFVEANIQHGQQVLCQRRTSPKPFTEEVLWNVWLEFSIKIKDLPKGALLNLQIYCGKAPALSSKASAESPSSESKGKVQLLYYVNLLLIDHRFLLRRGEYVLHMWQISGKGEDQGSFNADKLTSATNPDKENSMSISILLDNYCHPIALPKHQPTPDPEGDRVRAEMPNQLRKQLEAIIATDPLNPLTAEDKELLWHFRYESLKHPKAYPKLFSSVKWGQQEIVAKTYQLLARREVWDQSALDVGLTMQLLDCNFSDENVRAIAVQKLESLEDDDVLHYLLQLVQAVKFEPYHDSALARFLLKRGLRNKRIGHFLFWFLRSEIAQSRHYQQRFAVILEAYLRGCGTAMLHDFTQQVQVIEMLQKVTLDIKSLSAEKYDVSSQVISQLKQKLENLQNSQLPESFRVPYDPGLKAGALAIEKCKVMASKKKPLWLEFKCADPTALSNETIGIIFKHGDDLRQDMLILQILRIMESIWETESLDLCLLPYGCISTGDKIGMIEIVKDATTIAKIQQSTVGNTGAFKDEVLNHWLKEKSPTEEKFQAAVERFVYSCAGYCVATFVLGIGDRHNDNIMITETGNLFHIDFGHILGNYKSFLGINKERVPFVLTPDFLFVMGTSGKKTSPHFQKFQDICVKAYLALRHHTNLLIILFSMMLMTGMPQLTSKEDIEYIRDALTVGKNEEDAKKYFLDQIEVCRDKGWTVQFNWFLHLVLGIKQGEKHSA

In the case of `C=CC(=O)Nc1ccc(COCc2cc3nc(-c4cnc(N)nc4)nc(N4CCOCC4)c3s2)cc1` [II-a-173, N-(4-(((2-(2-aminopyrimidin-5-yl)-4-morpholinothieno[3,2-d]pyrimidin-6-yl)methoxy)methyl)phenyl)acrylamide], the values for the pEC50 in the test with Phospho-Akt(Ser473) [1] and with Phospho-Akt(Ser473) [2] were at least 8.00 and 7.00 to 8.00, respectively. Besides, the pIC50 at PI3Kα (p110α/p85α) was 6.00 to 7.00.
Consider `O=C(/C=C/c1ccccc1)CCC(=O)N1CCN(C(=O)c2cc3nc(-c4cccc5[nH]ncc45)nc(N4CCOCC4)c3s2)CC1` [II-a-142, (E)-1-(4-(2-(1H-indazol-4-yl)-4-morpholinothieno[3,2-d]pyrimidine-6-carbonyl)piperazin-1-yl)-6-phenylhex-5-ene-1,4-dione], for which the pEC50 in the test on Phospho-Akt(Ser473) [1] and in the test on Phospho-Akt(Ser473) [2] was 7.00 to 8.00 throughout. Besides, the pIC50 at PI3Kα (p110α/p85α) was over 8.00.
The GI50 is the concentration at which growth is held to half of that of the control. A high value points to lower sensitivity of the cells. In the case of `O=C(/C=C/c1ccccn1)CCC(=O)NCC12CCC(c3cc4nc(-c5cccc6[nH]ncc56)nc(N5CCOCC5)c4s3)(CC1)OC2` [II-a-163, (E)-N-((1-(2-(1H-indazol-4-yl)-4-morpholinothieno[3,2-d]pyrimidin-6-yl)-2-oxabicyclo[2.2.2]octan-4-yl)methyl)-4-oxo-6-(pyridin-2-yl)hex-5-enamide], the GI50 in the test on SKOV3 cells was in the range of 100 to 1000 nM. For the same compound, the pEC50 with Phospho-Akt(Ser473) [2] was 7.00 to 8.00. For the same compound, the pIC50 on PI3Kα (p110α/p85α) is under 6.00.
Take `O=C(/C=C(/c1ccccc1)C(F)(F)F)CCC(=O)N1CCN(Cc2cc3nc(-c4cccc5[nH]ncc45)nc(N4CCOCC4)c3s2)CC1` [II-a-158, (Z)-1-(4-((2-(1H-indazol-4-yl)-4-morpholinothieno[3,2-d]pyrimidin-6-yl)methyl)piperazin-1-yl)-7,7,7-trifluoro-6-phenylhept-5-ene-1,4-dione]: the GI50 with SKOV3 cells fell in the range of 100 to 1000 nM. Further, the pIC50 on PI3Kα (p110α/p85α) is 7.00 to 8.00.
Taken in the same sequence, the figures for `C=CC(=O)Nc1cc(C(=O)N2CC=C(c3cc4nc(-c5cnc(N)nc5)nc(N5CCOCC5)c4s3)CC2)ccc1Cl` [II-a-159, N-(5-(4-(2-(2-aminopyrimidin-5-yl)-4-morpholinothieno[3,2-d]pyrimidin-6-yl)-1,2,3,6-tetrahydropyridine-1-carbonyl)-2-chlorophenyl)acrylamide] were 100 to 1000 nM and 7.00 to 8.00.
In the case of `C=CC(=O)Nc1ccc(CC(=O)N2CCC(n3ncc4c(N5CCOCC5)nc(-c5ccc(NC(=O)NC)cc5)nc43)CC2)cc1` [VII-9, N-(4-(2-(4-(6-(4-(3-methylureido)phenyl)-4-morpholino-1H-pyrazolo[3,4-d]pyrimidin-1-yl)piperidin-1-yl)-2-oxoethyl)phenyl)acrylamide], in the test with SKOV3 cells, the GI50 lay within 100 to 1000 nM. For the same compound, the pEC50 in the test with Phospho-Akt(Ser473) [2] is 6.00 to 7.00. Besides, the pIC50 on PI3Kα (p110α/p85α) was 6.00 to 7.00.
In the test with SKOV3 cells, `C=CC(=O)Nc1ccc(C(=O)NCCOc2ccc3c(c2OC)N=C(NC(=O)c2cccnc2)N2CCN=C32)cc1` [IX-5, N-(8-(2-(4-acrylamidobenzamido)ethoxy)-7-methoxy-2,3-dihydroimidazo[1,2-c]quinazolin-5-yl)nicotinamide] showed a GI50 of 10 to 100 nM. For the same compound, the pIC50 at PI3Kα (p110α/p85α) was 7.00 to 8.00.
Regarding `C/C=C/C(=O)CCCC(=O)N1CCN(Cc2cc3nc(-c4cccc5[nH]ncc45)nc(N4CCOCC4)c3s2)CC1` [II-a-22, (E)-1-(4-((2-(1H-indazol-4-yl)-4-morpholinothieno[3,2-d]pyrimidin-6-yl)methyl)piperazin-1-yl)oct-6-ene-1,5-dione], the pEC50 in the test with Phospho-Akt(Ser473) [1] was 7.00 to 8.00. The pIC50 on PI3Kγ (p120γ) is under 6.00; on PI3Kα (p110α/p85α), 7.00 to 8.00.
The compound `CNC(=O)Nc1ccc(-c2nc(N3CCOCC3)c3cnn(C4CCN(C(=O)CCC(=O)/C=C/c5ccccc5)CC4)c3n2)cc1` [VII-10, (E)-1-methyl-3-(4-(4-morpholino-1-(1-(4-oxo-6-phenylhex-5-enoyl)piperidin-4-yl)-1H-pyrazolo[3,4-d]pyrimidin-6-yl)phenyl)urea] yielded a GI50 with SKOV3 cells of 10 to 100 nM. The pIC50 on PI3Kα (p110α/p85α) was 6.00 to 7.00.
Compound `C=C(CC)C(=O)CCC(=O)N1CCN(Cc2cc3nc(-c4cccc5[nH]ncc45)nc(N4CCOCC4)c3s2)CC1` [II-a-86, 1-(4-((2-(1H-indazol-4-yl)-4-morpholinothieno[3,2-d]pyrimidin-6-yl)methyl)piperazin-1-yl)-5-methyleneheptane-1,4-dione] displayed a GI50 with SKOV3 cells of 10 to 100 nM. The pEC50 in the test with Phospho-Akt(Ser473) [2] was at least 8.00. Further, the pIC50 at PI3Kα (p110α/p85α) is 7.00 to 8.00.
For the compound `CC(C)=CC(=O)CCCC(=O)N1CC=C(c2cc3nc(-c4cnc(N)nc4)cc(N4CCOCC4)c3s2)CC1` [II-g-3, 1-(4-(5-(2-aminopyrimidin-5-yl)-7-morpholinothieno[3,2-b]pyridin-2-yl)-5,6-dihydropyridin-1(2H)-yl)-7-methyloct-6-ene-1,5-dione], the results for the pEC50 in the test on Phospho-Akt(Ser473) [1] and in the test with Phospho-Akt(Ser473) [2] were 6.00 to 7.00 and at least 8.00, respectively. Moreover, the pIC50 on PI3Kγ (p120γ) and at PI3Kα (p110α/p85α) was 6.00 to 7.00 in each case.
Consider `CNC(=O)Nc1ccc(-c2nc(N3CCOCC3)c3cnn(C4CCN(C(=O)CCCC(=O)/C=C/c5ccccc5)CC4)c3n2)cc1` [VII-11, (E)-1-methyl-3-(4-(4-morpholino-1-(1-(5-oxo-7-phenylhept-6-enoyl)piperidin-4-yl)-1H-pyrazolo[3,4-d]pyrimidin-6-yl)phenyl)urea], for which the 50% growth inhibitory concentration (GI50) with SKOV3 cells fell in the range of 100 to 1000 nM. In addition, on PI3Kα (p110α/p85α), the pIC50 is 6.00 to 7.00.
`C=CC(=O)Nc1ccc(C(=O)N2CCC(n3ncc4c(N5CCOCC5)nc(-c5ccc(NC(=O)NC)cc5)nc43)CC2)cc1` [VII-8, N-(4-(4-(6-(4-(3-methylureido)phenyl)-4-morpholino-1H-pyrazolo[3,4-d]pyrimidin-1-yl)piperidine-1-carbonyl)phenyl)acrylamide] gave a GI50 with SKOV3 cells of 100 to 1000 nM. The pEC50 with Phospho-Akt(Ser473) [2] was 6.00 to 7.00. For the same compound, the pIC50 on PI3Kα (p110α/p85α) was 6.00 to 7.00.
Turning to `C=C(C)C(=O)CCCC(=O)N1CCN(Cc2cc3nc(-c4cccc5[nH]ncc45)nc(N4CCOCC4)c3s2)CC1` [II-a-14], the figures for the pEC50 in the test on Phospho-Akt(Ser473) [1] and in the test on Phospho-Akt(Ser473) [2] were 7.00 to 8.00 and at least 8.00, respectively. In addition, the figures for the pIC50 on PI3Kγ (p120γ) and on PI3Kα (p110α/p85α) were under 6.00 and 7.00 to 8.00, respectively.
With `C=CC(=O)Nc1ccc(CC(=O)N2CCC(n3ncc4c(N5CCOCC5)nc(-c5cnc(N)nc5)nc43)CC2)cc1` [VII-13, N-(4-(2-(4-(6-(2-aminopyrimidin-5-yl)-4-morpholino-1H-pyrazolo[3,4-d]pyrimidin-1-yl)piperidin-1-yl)-2-oxoethyl)phenyl)acrylamide], the pEC50 in the test with Phospho-Akt(Ser473) [1] and in the test with Phospho-Akt(Ser473) [2] was 7.00 to 8.00 each time. In addition, the pIC50 on PI3Kα (p110α/p85α) is 6.00 to 7.00.
Turning to `C=CC(=O)Nc1ccc(C(=O)N2CCN(C(=O)c3cc4nc(-c5cccc6[nH]ncc56)nc(N5CCOCC5)c4s3)CC2)cc1` [II-a-143, N-(4-(4-(2-(1H-indazol-4-yl)-4-morpholinothieno[3,2-d]pyrimidine-6-carbonyl)piperazine-1-carbonyl)phenyl)acrylamide], the GI50 in the test with SKOV3 cells is 100 to 1000 nM. The pEC50 in the test on Phospho-Akt(Ser473) [2] was at least 8.00. For the same compound, at PI3Kα (p110α/p85α), the pIC50 was 6.00 to 7.00.
